In US20230114728A1 (Venatorx Pharmaceuticals, Inc., priority 2019, published 2023):
≈ marks a conversion by molar mass, not a printed value.

Columns and labels:
Assay type in all cases: cell-based
[1] = tested on: N. gonorrhoeae ATCC 49226; test: Liquid broth MIC in Fastidious broth; conditions: Neisseria gonorrhoeae, ATCC49226; N. gonorrhoeae strain ATCC 49226; Fastidious broth; read-out: Minimum Inhibitory Concentration, N. gonorrhoeae ATCC 49226
Procedure, shortened: (§1)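 Colonies were swabbed from chocolate agar after 24 h growth and standardised by optical density at 600 nm. Compounds were serially diluted twofold in Fastidious broth, and bacteria added to give 5×10^5 CFU/mL. After about 24 h at 36 °C in 5% CO2, the lowest concentration allowing under 10% growth was taken as MIC.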

N. gonorrhoeae FA1090 = test: Liquid broth MIC in Fastidious broth; conditions: Neisseria gonorrhoeae; N. gonorrhoeae strain FA1090; Fastidious broth; read-out: Minimum Inhibitory Concentration, N. gonorrhoeae FA1090
Procedure, shortened: as §1

N. gonorrhoeae H041 = test: Liquid broth MIC in Fastidious broth; conditions: Neisseria gonorrhoeae, H041, read-out: Minimum Inhibitory Concentration, N. gonorrhoeae H041
Procedure, shortened: as §1

N. gonorrhoeae WHO G = test: Liquid broth MIC in Fastidious broth; conditions: Neisseria gonorrhoeae; N. gonorrhoeae strain WHO G; Fastidious broth; read-out: Minimum Inhibitory Concentration, N. gonorrhoeae WHO G
Procedure, shortened: as §1

N. gonorrhoeae WHO K = test: Liquid broth MIC in Fastidious broth; conditions: Neisseria gonorrhoeae, read-out: Minimum Inhibitory Concentration, N. gonorrhoeae WHO K
Procedure, shortened: as §1

N. gonorrhoeae WHO L = test: Liquid broth MIC in Fastidious broth; conditions: Neisseria gonorrhoeae; N. gonorrhoeae strain WHO L; Fastidious broth; read-out: Minimum Inhibitory Concentration, N. gonorrhoeae WHO L
Procedure, shortened: as §1

N. gonorrhoeae WHO Q = test: Liquid broth MIC in Fastidious broth; conditions: Neisseria gonorrhoeae, read-out: Minimum Inhibitory Concentration, N. gonorrhoeae WHO Q
Procedure, shortened: as §1

N. gonorrhoeae WHO Z = test: Liquid broth MIC in Fastidious broth; conditions: Neisseria gonorrhoeae, read-out: Minimum Inhibitory Concentration, N. gonorrhoeae WHO Z
Procedure, shortened: as §1

E. coli AG100A = test: Broth microdilution MIC in CAMHB; conditions: Escherichia coli, read-out: Minimum Inhibitory Concentration, E. coli AG100A
Procedure, shortened: (§2)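 Lowest compound concentration with no visible growth after 16-20 h at 37 °C defines MIC. Plates of 2-fold serial dilutions in cation-adjusted Mueller Hinton broth received 2-8×10^5 CFU/mL of exponentially grown cells, per CLSI methods; panel spans reference, hyper-permeable and efflux-pump-deleted strains.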

E. coli ATCC 25922 = test: Broth microdilution MIC in CAMHB; conditions: Escherichia coli, ATCC25922; E. coli ATCC 25922; MHB; read-out: Minimum Inhibitory Concentration, E. coli 25922
Procedure, shortened: as §2

E. coli D22 = test: Broth microdilution MIC in CAMHB; conditions: Escherichia coli; E. coli D22 (hyper-permeable); MHB; read-out: Minimum Inhibitory Concentration, E. coli D22
Procedure, shortened: as §2

[2] = tested on: K. pneumoniae SI-117 producing VIM-1; test: Broth microdilution MIC in CAMHB; conditions: Klebsiella pneumoniae, read-out: Minimum Inhibitory Concentration, K. pneumoniae SI-117
Procedure, shortened: as §2

P. aeruginosa ATCC 35151 = test: Broth microdilution MIC in CAMHB; conditions: Pseudomonas aeruginosa, ATCC35151; MHB; hyper-permeable strain; read-out: Minimum Inhibitory Concentration, P. aeruginosa ATCC 35151
Procedure, shortened: as §2

| Compound | MIC [1] | MIC (N. gonorrhoeae FA1090) | MIC (N. gonorrhoeae H041) | MIC (N. gonorrhoeae WHO G) | MIC (N. gonorrhoeae WHO K) | MIC (N. gonorrhoeae WHO L) | MIC (N. gonorrhoeae WHO Q) | MIC (N. gonorrhoeae WHO Z) | MIC (E. coli AG100A) | MIC (E. coli ATCC 25922) | MIC (E. coli D22) | MIC [2] | MIC (P. aeruginosa ATCC 35151) |
| --- | --- | --- | --- | --- | --- | --- | --- | --- | --- | --- | --- | --- | --- |
| NS(=O)(=O)c1cc(O)cc(C(NC(=O)N2CCN(Cc3c(F)cc(O)c(O)c3Cl)C(=O)C2=O)C(=O)N[C@H]2Cc3cccc(C(=O)O)c3OB2O)c1 (stereo partly drawn) [Example 132, (3R)-3-(2-(4-(2-chloro-6-fluoro-3,4-dihydroxybenzyl)-2,3-dioxopiperazine-1-carboxamido)-2-(3-hydroxy-5-sulfamoylphenyl)acetamido)-2-hydroxy-3,4-dihydro-2H-benzo[e][1,2]oxaborinine-8-carboxylic acid] | > 64 µg/mL | 16 to 32 µg/mL (≈ 21.3 to 42.7 µM) | > 64 µg/mL | > 64 µg/mL | > 64 µg/mL | > 64 µg/mL | > 64 µg/mL | > 64 µg/mL |  |  |  |  |  |
| NS(=O)(=O)Nc1cccc(C(NC(=O)N2CCN(Cc3c(F)cc(O)c(O)c3Cl)C(=O)C2=O)C(=O)N[C@H]2Cc3cccc(C(=O)O)c3OB2O)c1 (stereo partly drawn) [Example 131, (3R)-3-(2-(4-(2-chloro-6-fluoro-3,4-dihydroxybenzyl)-2,3-dioxopiperazine-1-carboxamido)-2-(3-(sulfamoylamino)phenyl)acetamido)-2-hydroxy-3,4-dihydro-2H-benzo[e][1,2]oxaborinine-8-carboxylic acid] | > 64 µg/mL | 16 to 32 µg/mL (≈ 21.4 to 42.7 µM) | > 64 µg/mL | > 64 µg/mL | > 64 µg/mL | > 64 µg/mL | > 64 µg/mL | > 64 µg/mL |  |  |  |  |  |
| CCN1CCN(C(=O)NC(C(=O)N[C@H]2Cc3cccc(C(=O)O)c3OB2O)c2c(F)cc(O)cc2F)C(=O)C1=O (stereo partly drawn) [Example 105, (3R)-3-(2-(2,6-difluoro-4-hydroxyphenyl)-2-(4-ethyl-2,3-dioxopiperazine-1-carboxamido)acetamido)-2-hydroxy-3,4-dihydro-2H-benzo[e][1,2]oxaborinine-8-carboxylic acid] | 4 to 8 µg/mL (≈ 7.14 to 14.3 µM) | < 0.125 µg/mL | 16 to 32 µg/mL (≈ 28.6 to 57.1 µM) | 0.25 to 0.5 µg/mL (≈ 0.446 to 0.892 µM) | 16 to 32 µg/mL (≈ 28.6 to 57.1 µM) | 16 to 32 µg/mL (≈ 28.6 to 57.1 µM) | 4 to 8 µg/mL (≈ 7.14 to 14.3 µM) | 4 to 8 µg/mL (≈ 7.14 to 14.3 µM) | 0.5 to 1 µg/mL (≈ 0.892 to 1.78 µM) | 8 to 16 µg/mL (≈ 14.3 to 28.6 µM) | 0.5 to 1 µg/mL (≈ 0.892 to 1.78 µM) | 32 to 64 µg/mL (≈ 57.1 to 114 µM) |  |
| CCN1CCN(C(=O)N[C@@H](C(=O)N[C@H]2Cc3cccc(C(=O)O)c3OB2O)c2ccc(C(=O)O)c(Cl)c2)C(=O)C1=O (single isomer, unassigned) [Example 154] | 1 to 2 µg/mL (≈ 1.7 to 3.41 µM) | < 0.125 µg/mL | 1 to 2 µg/mL (≈ 1.7 to 3.41 µM) | 0.25 to 0.5 µg/mL (≈ 0.426 to 0.852 µM) | 1 to 2 µg/mL (≈ 1.7 to 3.41 µM) | 4 to 8 µg/mL (≈ 6.82 to 13.6 µM) | 1 to 2 µg/mL (≈ 1.7 to 3.41 µM) | 0.25 to 0.5 µg/mL (≈ 0.426 to 0.852 µM) | 8 to 16 µg/mL (≈ 13.6 to 27.3 µM) | 32 to 64 µg/mL (≈ 54.5 to 109 µM) | 2 to 4 µg/mL (≈ 3.41 to 6.82 µM) |  | < 0.25 µg/mL |
| C[C@@H](O)[C@@H](NC(=O)N1CCN(CCNC(=O)c2c(F)cc(O)c(O)c2Cl)C(=O)C1=O)C(=O)N[C@H]1Cc2ccc(F)c(C(=O)O)c2OB1O [Example 102, (R)-3-((2R,3R)-2-(4-(2-(2-chloro-6-fluoro-3,4-dihydroxybenzamido)ethyl)-2,3-dioxopiperazine-1-carboxamido)-3-hydroxybutanamido)-7-fluoro-2-hydroxy-3,4-dihydro-2H-benzo[e][1,2]oxaborinine-8-carboxylic acid] | > 64 µg/mL | 16 to 32 µg/mL (≈ 22.9 to 45.9 µM) | > 64 µg/mL | 16 to 32 µg/mL (≈ 22.9 to 45.9 µM) | > 64 µg/mL | > 64 µg/mL | > 64 µg/mL | > 64 µg/mL |  |  |  |  |  |
| NC1(CN2CCN(C(=O)N[C@@H](C(=O)N[C@H]3Cc4ccc(F)c(C(=O)O)c4OB3O)c3c(F)cc(O)c(O)c3Cl)C(=O)C2=O)CC1 (single isomer, unassigned) [Example 134] | > 64 µg/mL | 16 to 32 µg/mL (≈ 24.5 to 49.1 µM) | > 64 µg/mL | > 64 µg/mL | > 64 µg/mL | > 64 µg/mL | > 64 µg/mL | > 64 µg/mL |  |  |  |  |  |
| NCCCN1CCN(C(=O)N[C@@H](C(=O)N[C@H]2Cc3ccc(F)c(C(=O)O)c3OB2O)c2cc(F)c(O)c(O)c2Cl)C(=O)C1=O (single isomer, unassigned) [Example 180] | 16 to 32 µg/mL (≈ 25 to 50 µM) | 4 to 8 µg/mL (≈ 6.25 to 12.5 µM) | > 64 µg/mL | 16 to 32 µg/mL (≈ 25 to 50 µM) | > 64 µg/mL | > 64 µg/mL | > 64 µg/mL | > 64 µg/mL |  |  |  |  |  |
